Source: US20200268690A1, “TOPICAL COMPOSITIONS” (Atossa Therapeutics, Inc., priority 2017, published 2020)
Where two headings read alike, the source gives them in different places.

What was measured:
[1] = Accelerated stability of (Z)-endoxifen free base in polar organic solvents in the absence and presence of human cadaver skin; type: physicochemical; details: for % Potency: relative to initiation of study; for potency and stability in presence of skin compared with absence of skin: in the solvents of Table 3, 45° C., after 2 days
Experimental: (§1) HPLC-UV. Briefly, (E)- and (Z)-endoxifen were analyzed by High Performance Liquid Chromatography, HPLC (instrument: Agilent 1100) using a UV detector (Agilent). Chromatographic resolution was obtained using a Luna Phenyl Hexyl Column ([…]×150 mm) at a column temperature of 40° C. Samples were injected in an injection volume of 10 ul and run at a flow rate of 1.0 ml/min. The mobile phase system used consisted of: A) water with 10 mM ammonium formate (HCOONH4) with 0.03% formic acid and B) Methanol with 10 mM ammonium formate (HCOONH4).
The stability studies of endoxifen free base in various pure polar organic solvents/MPEs were performed as described below. Accelerated stability studies of (Z)-endoxifen free base in solvents/MPEs were performed over a course of 2 days at 45° C. in both the presence and the absence of human cadaver skin to assess the degree to which the (Z)-endoxifen conversion to (E)-endoxifen by isomerization and or chemical degradation of the endoxifen is accelerated upon contact with skin and skin components. (Z)-Endoxifen solutions at […] of saturation concentrations were prepared in 1 ml batches in solvents as listed below in the Table 3. The potencies of (Z)-endoxifen and (E)-endoxifen were determined by HPLC-UV analysis as described above. Potency results are shown compared with potencies measured when the sample were stored at the initiation of stability study.

[2] = cited from earlier work
[3] = Solubility of endoxifen free base in polar organic solvents (HPLC-UV); type: physicochemical; details: for Z/E Ratio: room temperature
Experimental: (Z)-endoxifen free base was synthesized as described above in Example 1. (Z)-endoxifen was solubilized in various solvents as provided in Table 1, and tested for physical and chemical stability in solution. The solutions were prepared in ˜1 ml batches typically for solubility and stability testing. The mixture was stirred overnight on a rotisserie at room temperature. The next, day, the suspension was filtered using a syringe filter (0.2 um pore size GHP membrane). The filtrated solution was then analyzed for the concentration of (Z)-endoxifen and (E)-endoxifen as using a validated HPLC-UV method as described below.
as §1
UV detection of (E)-endoxifen and (Z)-endoxifen isomers was performed at 243 nm with a run time of 30 minutes. Retention times for (E)-endoxifen and (Z)-endoxifen were 15.14 m and 16.25 m respectively. […] The solubility of (Z)-endoxifen ranged from about 1 mg/g of solution to over 30 mg/g of solution.

patients = details: oral tamoxifen; cited from earlier work
[4] = in Diethyl Sebacate, 45° C. + skin, 2 days
[5] = in Diethyl Sebacate, 45° C., 2 days
[6] = in Diethylene glycol monoethyl ether, 45° C. + skin, 2 days
[7] = in Diethylene glycol monoethyl ether, 45° C., 2 days
[8] = in Diisopropyl Adipate, 45° C. + skin, 2 days
[9] = in Diisopropyl Adipate, 45° C., 2 days
[10] = in Dimethyl Isosorbide, 45° C. + skin, 2 days
[11] = in Dimethyl Isosorbide, 45° C., 2 days
[12] = in Dimethyl Sulfoxide, 45° C. + skin, 2 days
[13] = in Dimethyl Sulfoxide, 45° C., 2 days
[14] = in Dipropylene Glycol, 45° C. + skin, 2 days
[15] = in Dipropylene Glycol, 45° C., 2 days
[16] = in Isopropanol, 45° C. + skin, 2 days
[17] = in Isopropyl Myristate, 45° C. + skin, 2 days
[18] = in Isopropyl Myristate, 45° C., 2 days
[19] = in PEG 300, 45° C. + skin, 2 days

% Potency [1, 4] [%] | % Potency [1, 5] [%] | % Potency [1, 6] [%] | % Potency [1, 7] [%] | % Potency [1, 8] [%] | % Potency [1, 9] [%] | % Potency [1, 10] [%] | % Potency [1, 11] [%] | % Potency [1, 12] [%] | % Potency [1, 13] [%] | % Potency [1, 14] [%] | % Potency [1, 15] [%] | % Potency [1, 16] [%] | % Potency ([1]; in Isopropanol, 45° C., 2 days) [%] | % Potency [1, 17] [%] | % Potency [1, 18] [%] | % Potency [1, 19] [%] | % Potency ([1]; in PEG 300, 45° C., 2 days) [%] | potency and stability in presence of skin compared with absence of skin [1] | Structure (SMILES) | also measured
99 | 101 | 98 | 100 | 101 | 100 | 16 | 15 | 101 | 101 | 95 | 95 | 106 | 106 | 68 | 67 | 92 | 91 | maintained potency and stability | CC/C(=C(/c1ccc(O)cc1)c1ccc(OCCNC)cc1)c1ccccc1 [(E)-endoxifen free base] | –
– | – | – | – | – | – | – | – | – | – | – | – | – | – | – | – | – | – | – | CC/C(=C(\c1ccc(O)cc1)c1ccc(OCCNC)cc1)c1ccccc1.Cl [(Z)-endoxifen HCl] | t90 ([2]; 45° C.): 9 days; (Z)-endoxifen HCl remaining after degradation ([2]; aqueous medium, 45° C., day 15, from 98%): 75%; t90 ([2]; room temperature): 149 days
94 | 100 | 98 | 100 | 99 | 99 | 17 | 16 | 101 | 102 | 94 | 93 | 105 | 105 | 63 | 65 | 92 | 91 | maintained potency and stability | CC/C(=C(\c1ccc(O)cc1)c1ccc(OCCNC)cc1)c1ccccc1 [(Z)-endoxifen free base, (Z)-4-(1-(4-(2-(methylamino)ethoxy)phenyl)-2-phenylbut-1-enyl)phenol] | –
– | – | – | – | – | – | – | – | – | – | – | – | – | – | – | – | – | – | – | CC/C(=C(\c1ccc(O)cc1)c1ccc(OCCNC)cc1)c1ccccc1 [Endoxifen free base, (E/Z)-4-[1-[4-[2-(Methylamino)ethoxy]phenyl]-2-phenyl-1-buten-1-yl]-phenol] | solubility (in words) ([3]; in polar organic solvents/MPEs such as DMSO, ethanol, diethylene monoethyl ether, and oleic acid): significantly soluble; Z/E Ratio ([3]; saturated solution in Capric Trigylceride (Solvent No. 15)): 0.63; Z/E Ratio ([3]; saturated solution in Diethyl Sebacate (Solvent No. 2)): 1.7; Z/E Ratio ([3]; saturated solution in Diethylene glycol monoethyl ether (Solvent No. 10)): 1.89; Z/E Ratio ([3]; saturated solution in Diisopropyl Adipate (Solvent No. 3)): 1.87; Z/E Ratio ([3]; saturated solution in Dimethyl Isosorbide (Solvent No. 4)): 1.82; Z/E Ratio ([3]; saturated solution in Dimethyl Sulfoxide (Solvent No. 1)): 1.87; Z/E Ratio ([3]; saturated solution in Dipropylene Glycol (Solvent No. 5)): 1.82; Z/E Ratio ([3]; saturated solution in Ethanol (Solvent No. 6)): 1.72; Z/E Ratio ([3]; saturated solution in Isopropanol (Solvent No. 7)): 1.88; Z/E Ratio ([3]; saturated solution in Isopropyl Myristate (Solvent No. 12)): 1.09; Z/E Ratio ([3]; saturated solution in Oleic Acid (Solvent No. 14)): 1.02; Z/E Ratio ([3]; saturated solution in PEG300 (Solvent No. 8)): 1.77; Z/E Ratio ([3]; saturated solution in PEG 400 (Solvent No. 11)): 1.78; Z/E Ratio ([3]; saturated solution in Propylene Glycol (Solvent No. 9)): 1.60; Z/E Ratio ([3]; saturated solution in Soybean Oil (Solvent No. 13)): 0.76; stability (in words) ([1]; dissolved in dimethyl isosorbide and isopropyl myristate, 45° C., 2 days): poor stability
– | – | – | – | – | – | – | – | – | – | – | – | – | – | – | – | – | – | – | CC/C(=C(\c1ccccc1)c1ccc(OCCN(C)C)cc1)c1ccccc1 [tamoxifen, (Z)-2-[4-(1,2-diphenyl-1-butenyl)phenoxy]-N,N-dimethylethanamine] | patients with elevated liver function tests, especially SGOT/AST (patients): about 5%
